Reference: US10294202B2, “Pyrrolidinones as herbicides” (FMC Corporation, priority 2013, dated 2019)

Key:
Test in all cases: Test D pre-/postemergence herbicide test
kochia = assay type: in vivo, Kochia scoparia; conditions: for Plant response rating: Kochia, scale 0 to 100; for Plant response rating, Kochia: scale 0 to 100 (0 no effect, 100 complete control)
Description: (§1) Seeds of plant species selected from bluegrass (annual bluegrass, Poa annua), blackgrass (Alopecurus myosuroides), canarygrass (littleseed canarygrass, Phalaris minor), chickweed (common chickweed, Stellaria media), galium (catchweed bedstraw, Galium aparine), bromegrass, downy (downy bromegrass, Bromus tectorum), field poppy (Papaver rhoeas), field violet (Viola arvensis), foxtail, green (green foxtail, Setaria viridis), deadnettle (henbit deadnettle, Lamium amplexicaule), ryegrass, Italian (Italian ryegrass, Lolium multiflorum), kochia (Kochia scoparia), lambsquarters (Chenopodium album), oilseed rape (Brassica napus), pigweed (Amaranthus retroflexus), chamomile (scentless chamomile, Matricaria inodora), Russian thistle (Salsola kali), speedwell (bird's-eye speedwell, Veronica persica), barley, spring (spring barley, Hordeum vulgare), wheat, spring (spring wheat, Triticum aestivum), buckwheat, wild (wild buckwheat, Polygonum convolvulus), mustard, wild (wild mustard, Sinapis arvensis), oat, wild (wild oat, Avena fatua), radish, wild (wild radish, Raphanus raphanistrum), […]), barley, winter (winter barley, Hordeum vulgare), and wheat, winter (winter wheat, Triticum aestivum) were planted into a silt loam soil and treated preemergence with test chemicals formulated in a non-phytotoxic solvent mixture which included a surfactant. At the same time, these species were planted in pots containing Redi-Earth® planting medium (Scotts Company, 14111 Scottslawn Road, Marysville, Ohio 43041) comprising spaghnum peat moss, vermiculite, wetting agent and starter nutrients and treated with postemergence applications of the test chemicals formulated in the same manner. Plants ranged in height from 2 to 18 cm (1- to 4-leaf stage). Treated plants and controls were maintained in a controlled growth environment for 7 to 21 days after which time all species were compared to controls and visually evaluated. Plant response ratings, summarized in Table D, are based on a scale of 0 to 100 where 0 is no effect and 100 is complete control. A dash (-) response means no test result.

pigweed = assay type: in vivo, Amaranthus retroflexus; conditions: for Plant response rating: Postemergence, Pigweed, scale 0 to 100; for Plant response rating, Pigweed: Preemergence, scale 0 to 100 (0 no effect, 100 complete control)
Description: as §1

barley, winter = assay type: in vivo, Hordeum vulgare; conditions: for Plant response rating: Barley, Winter, scale 0 to 100; for Plant response rating, Barley, Winter: scale 0 to 100 (0 no effect, 100 complete control)
Description: as §1

barley, spring = assay type: in vivo, Hordeum vulgare; conditions: for Plant response rating: Barley, Spring, scale 0 to 100; for Plant response rating, Barley, Spring: scale 0 to 100 (0 no effect, 100 complete control)
Description: as §1

field poppy = assay type: in vivo, Papaver rhoeas; conditions: for Plant response rating: Field Poppy, scale 0 to 100; for Plant response rating, Field Poppy: scale 0 to 100 (0 no effect, 100 complete control)
Description: as §1

Russian thistle = assay type: in vivo, Salsola kali; conditions: Postemergence, Russian Thistle, scale 0 to 100
Description: as §1

O=C1NCC(c2cc(F)c(F)c(F)c2)C1C(=O)Nc1ccccc1F (racemic) [Compound 34]
Plant response rating (kochia; Postemergence, 16 g ai/ha): 0
Plant response rating (kochia; Postemergence, 62 g ai/ha): 0
Plant response rating (kochia; Postemergence, 125 g ai/ha): 10
Plant response rating (kochia; Postemergence, 250 g ai/ha): 25
Plant response rating (pigweed; 16 g ai/ha): 0
Plant response rating (pigweed; 31 g ai/ha): 0
Plant response rating (pigweed; 62 g ai/ha): 0
Plant response rating (pigweed; 125 g ai/ha): 0
Plant response rating (pigweed; 250 g ai/ha): 10
Plant response rating (barley, winter; Postemergence, 16 g ai/ha): 0
Plant response rating (barley, winter; Postemergence, 31 g ai/ha): 0
Plant response rating (barley, winter; Postemergence, 62 g ai/ha): 0
Plant response rating (barley, winter; Postemergence, 125 g ai/ha): 0
Plant response rating (barley, winter; Postemergence, 250 g ai/ha): 0
Plant response rating (barley, spring; Postemergence, 16 g ai/ha): 0
Plant response rating (barley, spring; Postemergence, 31 g ai/ha): 0
Plant response rating (barley, spring; Postemergence, 62 g ai/ha): 0
Plant response rating (barley, spring; Postemergence, 125 g ai/ha): 0
Plant response rating (barley, spring; Postemergence, 250 g ai/ha): 0
Plant response rating (field poppy; Postemergence, 16 g ai/ha): 0
Plant response rating (field poppy; Postemergence, 31 g ai/ha): 0
Plant response rating (field poppy; Postemergence, 62 g ai/ha): 0
Plant response rating (field poppy; Postemergence, 125 g ai/ha): 0
Plant response rating (field poppy; Postemergence, 250 g ai/ha): 20
Plant response rating (Russian thistle; 16 g ai/ha): 0
Plant response rating (Russian thistle; 31 g ai/ha): 0
Plant response rating (Russian thistle; 62 g ai/ha): 0
Plant response rating (Russian thistle; 125 g ai/ha): 0
Plant response rating (Russian thistle; 250 g ai/ha): 0

O=C1NCC(c2cccc(C(F)(F)F)c2)C1C(=O)Nc1ccc(F)cc1F (racemic) [Compound 207]
Plant response rating, Kochia (kochia; Preemergence, 31 g ai/ha): 10
Plant response rating, Kochia (kochia; Preemergence, 62 g ai/ha): 10
Plant response rating, Kochia (kochia; Preemergence, 125 g ai/ha): 10
Plant response rating (kochia; Preemergence, 250 g ai/ha): 60
Plant response rating, Pigweed (pigweed; 31 g ai/ha): 0
Plant response rating, Pigweed (pigweed; 62 g ai/ha): 0
Plant response rating, Pigweed (pigweed; 125 g ai/ha): 0
Plant response rating, Pigweed (pigweed; 250 g ai/ha): 5
Plant response rating, Barley, Winter (barley, winter; Preemergence, 31 g ai/ha): 5
Plant response rating, Barley, Winter (barley, winter; Preemergence, 62 g ai/ha): 10
Plant response rating, Barley, Winter (barley, winter; Preemergence, 125 g ai/ha): 25
Plant response rating (barley, winter; Preemergence, 250 g ai/ha): 45
Plant response rating, Barley, Spring (barley, spring; Preemergence, 31 g ai/ha): 0
Plant response rating, Barley, Spring (barley, spring; Preemergence, 62 g ai/ha): 5
Plant response rating, Barley, Spring (barley, spring; Preemergence, 125 g ai/ha): 20
Plant response rating (barley, spring; Preemergence, 250 g ai/ha): 25
Plant response rating, Field Poppy (field poppy; Preemergence, 31 g ai/ha): 55
Plant response rating, Field Poppy (field poppy; Preemergence, 62 g ai/ha): 75
Plant response rating, Field Poppy (field poppy; Preemergence, 125 g ai/ha): 80
Plant response rating (field poppy; Preemergence, 250 g ai/ha): 100

O=C1NCC(c2cccc(C(F)(F)F)c2)C1C(=O)Nc1cccc(F)c1F (stereo not drawn) [Compound 241]
Plant response rating, Kochia (kochia; Preemergence, 31 g ai/ha): 20
Plant response rating, Kochia (kochia; Preemergence, 62 g ai/ha): 30
Plant response rating, Kochia (kochia; Preemergence, 125 g ai/ha): 80
Plant response rating (kochia; Preemergence, 250 g ai/ha): 70
Plant response rating, Pigweed (pigweed; 31 g ai/ha): 15
Plant response rating, Pigweed (pigweed; 62 g ai/ha): 15
Plant response rating, Pigweed (pigweed; 125 g ai/ha): 85
Plant response rating, Pigweed (pigweed; 250 g ai/ha): 80
Plant response rating, Barley, Winter (barley, winter; Preemergence, 31 g ai/ha): 10
Plant response rating, Barley, Winter (barley, winter; Preemergence, 62 g ai/ha): 10
Plant response rating, Barley, Winter (barley, winter; Preemergence, 125 g ai/ha): 30
Plant response rating (barley, winter; Preemergence, 250 g ai/ha): 65
Plant response rating, Barley, Spring (barley, spring; Preemergence, 31 g ai/ha): 0
Plant response rating, Barley, Spring (barley, spring; Preemergence, 62 g ai/ha): 10
Plant response rating, Barley, Spring (barley, spring; Preemergence, 125 g ai/ha): 20
Plant response rating (barley, spring; Preemergence, 250 g ai/ha): 35
Plant response rating, Field Poppy (field poppy; Preemergence, 31 g ai/ha): 90
Plant response rating, Field Poppy (field poppy; Preemergence, 62 g ai/ha): 95
Plant response rating, Field Poppy (field poppy; Preemergence, 125 g ai/ha): 95
Plant response rating (field poppy; Preemergence, 250 g ai/ha): 100
